Measurements reported in patent US8618289B2 (Ambit Biosciences Corporation, priority 2008, dated 2013).

Legend:
[1] = tested on: MEK1 phosphorylation in the A375 human melanoma cell line; assay: cells; conditions: A-375, read-out: pMEK IC50
Experimental: A375 cells (from American Type Culture Collection) were plated at 50,000 cells per well in DMEM (Mediatech) with 10% fetal bovine serum (Omega Scientific) into a 96 well plate and incubated overnight in a 37° C. incubator with 10% CO2. The cells were then washed with PBS and the medium replaced with 0.5% FBS for incubation overnight. […] The cells were incubated with compound or control for two hours at 37° C. The compound solution was aspirated off and the cells washed with cold PBS. […] The plate was centrifuged for 30 minutes to pellet out the cell debris. The cleared lysates were transferred to a 96-well Nunc plate and the ELISA protocol described by the manufacturer in Catalog #KHO0321 or KHO0291 was followed.

A375 cells = assay: cells; conditions: Homo sapiens, A-375, read-out: A375 Viability EC50

Question: What does the source list for `COc1cc2ncnc(Oc3cccc(NC(=O)Nc4cc(C(C)(C)C)on4)c3)c2cc1OCCCN1CCOCC1` [Ex 22, 1-(5-tert-butylisoxazol-3-yl)-3-(3-(7-methoxy-6-(3-morpholinopropoxy)quinazolin-4-yloxy)phenyl)urea]?
Answer: IC50 [1]: < 250 nM; EC50 (A375 cells): < 250 nM

Question: With `COc1cc2ncnc(Sc3cccc(NC(=O)Nc4cc(C(C)(C)C)on4)c3)c2cc1OCCCS(C)(=O)=O` [Ex 64, 1-(5-tert-butylisoxazol-3-yl)-3-(3-(7-methoxy-6-(3-(methylsulfonyl)propoxy)quinazolin-4-ylthio)phenyl)urea] as the compound, how does the IC50 [1] read?
Answer: < 250 nM

Question: What about the EC50 (A375 cells) of the same compound?
Answer: 250 to 500 nM

Question: Which IC50 [1] does the source give for `COc1cc2ncnc(Sc3cccc(NC(=O)Nc4cc(C(C)(C)C)on4)c3)c2cc1OCCN1CCS(=O)(=O)CC1` [Ex 71, 1-(5-tert-butyl-isoxazol-3-yl)-3-(3-{6-[2-(1,1-dioxo-thiomorpholin-4-yl)-ethoxy]-7-methoxy-quinazolin-4-ylsulfanyl}-phenyl)-urea] here?
Answer: < 250 nM

Question: What about the EC50 (A375 cells) of the same compound?
Answer: 250 to 500 nM

Question: What does the source list for `COc1cc2ncnc(Sc3cccc(NC(=O)Nc4cc(C(C)(C)C)on4)c3)c2cc1OCCS(C)(=O)=O` [Ex 88, 1-(5-tert-butylisoxazol-3-yl)-3-(3-(7-methoxy-6-(2-(methylsulfonyl)ethoxy)quinazolin-4-ylthio)phenyl)urea]?
Answer: IC50 [1]: < 250 nM; EC50 (A375 cells): 500 to 1000 nM

Question: Which IC50 [1] does the source give for `COc1cc2nc(Cl)nc(Sc3cccc(NC(=O)Nc4cc(C(C)(C)C)on4)c3)c2cc1OC` [Ex 89, 1-(5-tert-butylisoxazol-3-yl)-3-(3-(2-chloro-6,7-dimethoxyquinazolin-4-ylthio)phenyl)urea] here?
Answer: > 1000 nM

Question: Which results are given for `COc1cc2c(Oc3cccc(NC(=O)Nc4cc(C(C)(C)C)on4)c3)ncnc2cc1OC[C@H](O)CN1CCN(C)CC1` [Ex 100, (R)-1-(5-tert-butylisoxazol-3-yl)-3-(3-(7-(2-hydroxy-3-(4-methylpiperazin-1-yl)propoxy)-6-methoxyquinazolin-4-yloxy)phenyl)urea]?
Answer: IC50 [1]: < 250 nM; EC50 (A375 cells): < 250 nM

Question: What does the source list for `COc1cc2c(Oc3cccc(NC(=O)Nc4cc(C(C)(C)C)on4)c3)ncnc2cc1O[C@H]1CCN(CC(F)(F)F)C1` [Ex 104, (S)-1-(5-tert-butylisoxazol-3-yl)-3-(3-{6-methoxy-7-[1-(2,2,2-trifluoroethyl)pyrrolidin-3-yloxy]quinazolin-4-yloxy}phenyl)urea]?
Answer: IC50 [1]: 500 to 1000 nM; EC50 (A375 cells): > 1000 nM

Question: `COc1cc2c(Oc3cccc(NC(=O)Nc4cc(C(C)(C)C)on4)c3)ncnc2cc1OC1CCN(CC(F)F)CC1` [Ex 105, 1-(5-tert-butylisoxazol-3-yl)-3-(3-{7-[1-(2,2-difluoroethyl)piperidin-4-yloxy]-6-methoxyquinazolin-4-yloxy}phenyl)urea] was tested. Which IC50 [1] did it give?
Answer: > 1000 nM

Question: What about the EC50 (A375 cells) of the same compound?
Answer: > 1000 nM

Question: For `COc1cc2ncnc(Oc3cccc(NC(=O)Nc4cc(C(C)(C)C)on4)c3)c2cc1O[C@H]1CCN(C)C1` [Ex 109, (S)-1-(5-tert-butylisoxazol-3-yl)-3-(3-(7-methoxy-6-(1-methylpyrrolidin-3-yloxy)quinazolin-4-yloxy)phenyl)urea], which IC50 [1] is on record?
Answer: < 250 nM

Question: What about the EC50 (A375 cells) of the same compound?
Answer: 250 to 500 nM

Question: What does the source list for `COc1cc2ncnc(Oc3cccc(NC(=O)Nc4cc(C(C)C)no4)c3)c2cc1OC` [Ex 122, 1-(3-(6,7-dimethoxyquinazolin-4-yloxy)phenyl)-3-(3-isopropylisoxazol-5-yl)urea]?
Answer: IC50 [1]: 250 to 500 nM; EC50 (A375 cells): > 1000 nM

Question: Which results are given for `COc1cc2ncnc(Oc3cccc(NC(=O)Nc4cc(C5CC5)no4)c3)c2cc1OC` [Ex 124, 1-(3-cyclopropylisoxazol-5-yl)-3-(3-(6,7-dimethoxyquinazolin-4-yloxy)phenyl)urea]?
Answer: IC50 [1]: > 1000 nM; EC50 (A375 cells): > 1000 nM

Question: `COc1cc2ncnc(Oc3cccc(NC(=O)Nc4cc(C5(C)CC5)on4)c3)c2cc1OC` [Ex 127, 1-(3-(6,7-dimethoxyquinazolin-4-yloxy)phenyl)-3-(5-(1-methylcyclopropyl)isoxazol-3-yl)urea] was tested. Which IC50 [1] did it give?
Answer: 250 to 500 nM

Question: And the EC50 (A375 cells)?
Answer: > 1000 nM

Question: `COc1cc2ncnc(Sc3cccc(NC(=O)Nc4cc(C(C)(C)C)nn4-c4ccccc4)c3)c2cc1OC` [Ex 154, 1-(3-tert-butyl-1-phenyl-1H-pyrazol-5-yl)-3-(3-(6,7-dimethoxyquinazolin-4-ylthio)phenyl)urea] was tested. Which IC50 [1] did it give?
Answer: < 250 nM
